Test results: paper PMC6399351, “Cationic Intrinsically Disordered Antimicrobial Peptides (CIDAMPs) Represent a New Paradigm of Innate Defense with a Potential for Novel Anti-Infectives” (Scientific Reports, 2019)
Converted amounts (≈) assume the structure as drawn. Read-outs that look alike come from different tables or passages of the source. Square brackets hold non-standard residues; d marks the D form. Peptide text beside a SMILES is read from it. * marks the point of attachment. Palmitoyl = CCCCCCCCCCCCCCCC(=O)*; Dab = NCC[C@H](N)C(=O)O; Dap = NC[C@H](N)C(=O)O

What was measured:
[1] = test system: Klebsiella pneumonia ATCC 700603; conditions: MDR strain; CLSI, Mueller–Hinton broth, 5 × 10^5 CFU/mL, 18 h 37 °C, by CO-ADD
E. coli ATCC 25922 = experiment: CO-ADD MIC, broth microdilution (CLSI); assay type: cell-based, Escherichia coli; conditions: Mueller–Hinton broth, 5 × 10^5 CFU/mL, 18 h 37 °C, by CO-ADD
Source text: (§1) They were defined as the lowest peptide
(§2) Further details of the screening

S. aureus ATCC 6538 = conditions: CFU assay
[2] = test system: Candida albicans ATCC 90028; experiment: CO-ADD MIC, antifungal assay (CLSI); assay type: cell-based; conditions: Yeast Nitrogen Base broth, 24 h 35 °C, by CO-ADD
Method: (§3) Fungi strains were cultured for 3 days on Yeast Extract-Peptone Dextrose (YPD) agar at 30 °C. A yeast suspension of 1 × 10^6 to 5 × 10^6 cells/mL (as determined by OD530) was prepared from five colonies. These stock suspensions were diluted with Yeast Nitrogen Base (YNB) broth to a final concentration of 2.5 × 10^3 CFU/mL. […] Plates were covered and incubated at 35 °C for 24 h without shaking.

[3] = test system: Cryptococcus neoformans ATCC 208821; experiment: CO-ADD MIC, antifungal assay (CLSI); assay type: cell-based; conditions: Yeast Nitrogen Base broth, 24 h 35 °C, by CO-ADD
Method: as §3

[4] = test system: Pseudomonas aeruginosa ATCC 27853; experiment: CO-ADD MIC, broth microdilution (CLSI); assay type: cell-based; conditions: Mueller–Hinton broth, 5 × 10^5 CFU/mL, 18 h 37 °C, by CO-ADD
Source text: as §1, §2

[5] = test system: Acinetobacter baumannii ATCC 19606; experiment: CO-ADD MIC, broth microdilution (CLSI); assay type: cell-based; conditions: Mueller–Hinton broth, 5 × 10^5 CFU/mL, 18 h 37 °C, by CO-ADD
Source text: as §1, §2

[6] = test system: Staphylococcus aureus ATCC 43300; conditions: MRSA; CLSI, Mueller–Hinton broth, 5 × 10^5 CFU/mL, 18 h 37 °C, by CO-ADD
[7] = 10 mM NaP, pH 5.5, 0.25% glucose

SMILES | Minimal inhibitory concentration (MIC) [1] | Minimal inhibitory concentration (MIC) (E. coli ATCC 25922) | LD90 (S. aureus ATCC 6538; [7]) | LD90 (S. aureus ATCC 6538; value in molar units) | Minimal inhibitory concentration (MIC) [2] | Minimal inhibitory concentration (MIC) [3] | Minimal inhibitory concentration (MIC) [4] | Minimal inhibitory concentration (MIC) [5] | Minimal inhibitory concentration (MIC) [6] | LD99 (concentration of peptide which kills 99.0% of inoculum) (S. aureus ATCC 6538; [7]) | LD90 (S. aureus ATCC 6538; 10 mM NaP, pH 7.3, 1% TSB) | LD99 (concentration of peptide which kills 99.0% of inoculum) (S. aureus ATCC 6538; 10 mM NaP, pH 7.3, 1% TSB)
N=C(N)NCCC[C@H](NC(=O)[C@H](CCCNC(=N)N)NC(=O)[C@H](CS)NC(=O)[C@H](CCCNC(=N)N)NC(=O)[C@H](Cc1c[nH]cn1)NC(=O)[C@H](CO)NC(=O)[C@H](CCCNC(=N)N)NC(=O)[C@H](CS)NC(=O)[C@H](CS)NC(=O)[C@H](CCCNC(=N)N)NC(=O)[C@H](Cc1c[nH]cn1)NC(=O)[C@H](Cc1c[nH]cn1)NC(=O)[C@@H](N)CO)C(=O)O [LCE-3B56-68] (H-SHHRCCRSHRCRR-OH) | >32 µg/mL | >32 µg/mL | 0.075 µg/mL | 44 nM | >32 µg/mL | 8 µg/mL (≈ 4.72 µM) | >32 µg/mL | >32 µg/mL | 32 µg/mL (≈ 18.9 µM) | – | – | –
CCCCCCCCCCCCCCCC(=O)NCC(=O)N[C@@H](CCN)C(=O)NCC(=O)N[C@@H](CCN)C(=O)O [Pal-G-Dab4] (Palmitoyl-G[Dab]G[Dab]-OH) | >32 µg/mL | >32 µg/mL | 4.7 µg/mL | – | >32 µg/mL | 16 µg/mL (≈ 28 µM) | >32 µg/mL | 32 µg/mL (≈ 56.1 µM) | 32 µg/mL (≈ 56.1 µM) | – | – | –
CCCCCCCCCCCCCCCC(=O)NCC(=O)N[C@@H](CN)C(=O)NCC(=O)N[C@@H](CN)C(=O)O [Pal-G-Dap4] (Palmitoyl-G[Dap]G[Dap]-OH) | >32 µg/mL | >32 µg/mL | 2.35 µg/mL | – | 8 µg/mL (≈ 14.7 µM) | 1 µg/mL (≈ 1.84 µM) | >32 µg/mL | >32 µg/mL | 8 µg/mL (≈ 14.7 µM) | – | – | –
CCCCCCCCCCCCCCCC(=O)NCC(=O)N[C@@H](CCCNC(=N)N)C(=O)NCC(=O)N[C@@H](CCCNC(=N)N)C(=O)O [Pal-GR4] (Palmitoyl-GRGR-OH) | >32 µg/mL | >32 µg/mL | 2.35 µg/mL | 3400 nM | 8 µg/mL (≈ 11.7 µM) | 8 µg/mL (≈ 11.7 µM) | >32 µg/mL | >32 µg/mL | 8 µg/mL (≈ 11.7 µM) | 4.7 µg/mL | – | –
CCCCCCCCCCCCCCCC(=O)NCC(=O)N[C@@H](CCCNC(=N)N)C(=O)N[C@@H](CCCNC(=N)N)C(=O)NCC(=O)NCC(=O)N[C@@H](CCCNC(=N)N)C(=O)O [Pal-GR6] (Palmitoyl-GRRGGR-OH) | >32 µg/mL | >32 µg/mL | 2.35 µg/mL | – | >32 µg/mL | 16 µg/mL (≈ 17.9 µM) | >32 µg/mL | >32 µg/mL | 16 µg/mL (≈ 17.9 µM) | 4.7 µg/mL | – | –
CCCCCCCCCCCCCCCC(=O)NCC(=O)N[C@@H](CCCNC(=N)N)C(=O)N[C@@H](CCCNC(=N)N)C(=O)NCC(=O)NCC(=O)N[C@@H](CCCNC(=N)N)C(=O)NCC(=O)NCC(=O)N[C@@H](CCCNC(=N)N)C(=O)O [Pal-GR9] (Palmitoyl-GRRGGRGGR-OH) | >32 µg/mL | >32 µg/mL | 1.18 µg/mL | – | >32 µg/mL | >32 µg/mL | >32 µg/mL | >32 µg/mL | 8 µg/mL (≈ 6.86 µM) | 4.7 µg/mL | – | –
CCCCCCCCCCCCCCCC(=O)NCC(=O)N[C@@H](CCCNC(=N)N)C(=O)N[C@@H](CCCNC(=N)N)C(=O)NCC(=O)NCC(=O)N[C@@H](CCCNC(=N)N)C(=O)NCC(=O)NCC(=O)N[C@@H](CCCNC(=N)N)C(=O)NCC(=O)N[C@@H](CCCNC(=N)N)C(=O)O [Pal-GR11] (Palmitoyl-GRRGGRGGRGR-OH) | >32 µg/mL | 8 µg/mL (≈ 5.8 µM) | – | – | 4 µg/mL (≈ 2.9 µM) | 4 µg/mL (≈ 2.9 µM) | 16 µg/mL (≈ 11.6 µM) | 8 µg/mL (≈ 5.8 µM) | 4 µg/mL (≈ 2.9 µM) | – | 0.3 µg/mL | 1.18 µg/mL
CCCCCCCCCCCCCCCC(=O)N[C@@H](Cc1c[nH]cn1)C(=O)NCC(=O)N[C@@H](CO)C(=O)N[C@@H](CCCNC(=N)N)C(=O)N[C@@H](CO)C(=O)NCC(=O)N[C@@H](CCC(N)=O)C(=O)N[C@@H](CO)C(=O)N[C@@H](CO)C(=O)N[C@@H](CCCNC(=N)N)C(=O)NCC(=O)N[C@@H](CCC(=O)O)C(=O)N[C@@H](CCCNC(=N)N)C(=O)N[C@@H](Cc1c[nH]cn1)C(=O)NCC(=O)N[C@@H](CO)C(=O)N[C@@H](CO)C(=O)N[C@@H](CO)C(=O)NCC(=O)N[C@@H](CO)C(=O)N[C@@H](CO)C(=O)N[C@@H](CO)C(=O)N[C@@H](Cc1c[nH]cn1)C(=O)O [Pal-HR 1-11] (Palmitoyl-HGSRSGQSSRGERHGSSSGSSSH-OH) | >32 µg/mL | >32 µg/mL | 2.35 µg/mL | – | >32 µg/mL | >32 µg/mL | >32 µg/mL | >32 µg/mL | 32 µg/mL (≈ 12.6 µM) | – | – | –
CCCCCCCCCCCCCCCC(=O)NCC(=O)N[C@@H](CCCNC(=N)N)C(=O)N[C@@H](CCCNC(=N)N)C(=O)NCC(=O)N[C@@H](CO)C(=O)NCC(=O)N[C@@H](CC(C)C)C(=O)NCC(=O)N[C@@H](CCCNC(=N)N)C(=O)N[C@@H](CO)C(=O)N[C@@H](CO)C(=O)N[C@@H](CO)C(=O)N[C@@H](CCCNC(=N)N)C(=O)O [Pal-HR 1-18-3H3R-GR13] (Palmitoyl-GRRGSGLGRSSSR-OH) | >32 µg/mL | >32 µg/mL | 2.35 µg/mL | – | >32 µg/mL | 16 µg/mL (≈ 10.2 µM) | >32 µg/mL | 16 µg/mL (≈ 10.2 µM) | 16 µg/mL (≈ 10.2 µM) | – | – | –
CCCCCCCCCCCCCCCC(=O)N[C@@H](CCCNC(=N)N)C(=O)NCC(=O)N[C@@H](CO)C(=O)N[C@@H](CCCNC(=N)N)C(=O)N[C@@H](CO)C(=O)NCC(=O)N[C@@H](CCC(N)=O)C(=O)N[C@@H](CO)C(=O)N[C@@H](CO)C(=O)N[C@@H](CCCNC(=N)N)C(=O)NCC(=O)N[C@@H](CCC(=O)O)C(=O)N[C@@H](CCCNC(=N)N)C(=O)N[C@@H](CCCNC(=N)N)C(=O)NCC(=O)N[C@@H](CO)C(=O)N[C@@H](CO)C(=O)N[C@@H](CO)C(=O)NCC(=O)N[C@@H](CO)C(=O)N[C@@H](CO)C(=O)N[C@@H](CO)C(=O)N[C@@H](CCCNC(=N)N)C(=O)O [Pal-HR-1-11-3H3R] (Palmitoyl-RGSRSGQSSRGERRGSSSGSSSR-OH) | >32 µg/mL | 32 µg/mL (≈ 12.3 µM) | 0.59 µg/mL | – | 32 µg/mL (≈ 12.3 µM) | 32 µg/mL (≈ 12.3 µM) | >32 µg/mL | 8 µg/mL (≈ 3.07 µM) | 32 µg/mL (≈ 12.3 µM) | – | – | –
